Test results: publication PMC5478686, “Direct Anandamide Activation of TRPV1 Produces Divergent Calcium and Current Responses” (Frontiers in Molecular Neuroscience, 2017)

Tests used:
[1] = target: T1, TRPV1 (Rattus norvegicus, UniProt O35433); assay: Ratiometric Fura-2 calcium imaging in dissociated nodose ganglion (vagal afferent) neurons; assay type: cell-based; conditions: for effect on AEA-induced increase in cytosolic calcium: AEA 10 μM; for effect on CAP-induced increase in cytosolic calcium: CAP 100 nM
T1 construct: endogenous in cells; host or cells: dissociated nodose ganglion neurons from male Sprague Dawley rats (primary culture, used within 24 h)
T1 sequence (O35433 whole entry): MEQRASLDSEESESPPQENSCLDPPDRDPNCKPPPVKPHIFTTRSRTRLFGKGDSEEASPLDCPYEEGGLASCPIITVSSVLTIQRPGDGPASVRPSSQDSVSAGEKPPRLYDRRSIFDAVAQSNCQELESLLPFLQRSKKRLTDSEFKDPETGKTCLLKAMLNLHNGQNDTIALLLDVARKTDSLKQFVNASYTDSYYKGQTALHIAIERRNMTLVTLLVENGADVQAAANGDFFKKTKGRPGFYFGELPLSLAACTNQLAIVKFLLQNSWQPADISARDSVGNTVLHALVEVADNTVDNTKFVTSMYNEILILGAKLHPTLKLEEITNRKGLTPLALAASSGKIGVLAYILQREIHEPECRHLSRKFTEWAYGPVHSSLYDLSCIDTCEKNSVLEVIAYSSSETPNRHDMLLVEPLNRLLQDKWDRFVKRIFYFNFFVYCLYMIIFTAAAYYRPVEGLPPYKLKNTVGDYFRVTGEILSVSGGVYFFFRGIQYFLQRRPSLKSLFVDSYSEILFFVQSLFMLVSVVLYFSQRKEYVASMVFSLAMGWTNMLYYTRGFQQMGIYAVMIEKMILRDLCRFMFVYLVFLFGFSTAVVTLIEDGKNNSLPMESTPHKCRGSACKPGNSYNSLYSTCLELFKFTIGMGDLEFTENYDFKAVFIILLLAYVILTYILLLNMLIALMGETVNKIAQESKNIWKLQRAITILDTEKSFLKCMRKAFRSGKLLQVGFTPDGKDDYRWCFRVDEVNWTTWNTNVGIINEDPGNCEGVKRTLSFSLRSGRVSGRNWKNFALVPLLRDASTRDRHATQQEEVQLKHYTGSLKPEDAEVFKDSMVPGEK
Description: (§1) Nodose ganglia were isolated bilaterally from rats and mice under a deep plane of anesthesia (Ketamine, 25 mg/100 g; with Xylazine, 2.5 mg/100 g) using aseptic surgical conditions previously reported (Lancaster and Weinreich, [2001]; Simasko et al., [2002]). Following a midline incision in the neck, the musculature was retracted and blunt dissection techniques were used to dissociate the vagal trunk from the common carotid artery. High-magnification optics (10–100× dissecting scope; Leica Microsystems, Buffalo Grove, IL, USA) were utilized to visualize the nodose ganglia and facilitate complete removal. Once isolated, nodose ganglia were desheathed and digested in Ca^2+/Mg^2+ free Hank’s Balanced Salt Solution containing 1 mg/mL of both Dispase II (Hoffmann La Roche) and Collagenase Type 1A (Sigma Aldrich; 90 min at 37°C in 95% air/5% CO2). Neurons were dispersed by gentle trituration through silicanized pipettes, and then washed in Dulbecco’s Modified Eagle’s Medium (DMEM) supplemented with 10% fetal bovine serum (FBS) and 1% penicillin-streptomycin. Dispersed cells were plated onto poly-lysine coated coverslips and maintained in DMEM+10% FBS (37°C in 95% air/5% CO2). Measurements were made within 24 h of isolation.
Intracellular calcium measurements were made with the fluorescent Ca^2+ indicator Fura-2 AM (Molecular Probes, Eugene, OR, USA). Manipulations were made at room temperature in a physiological saline bath (in mM: 140 NaCl, 5 KCl, 2 CaCl2, 1 MgCl2, 6 glucose, 10 HEPES with pH adjusted to 7.4 with NaOH). High K^+ bath (HiK) had 55 mM KCl with an equimolar reduction of NaCl to 90 mM. Neurons on coverslips were loaded with 1 μM Fura-2-AM for 1 h followed by a 15 min wash for de-esterification. COS-7 cells on coverslips were loaded with 1 μM Fura-2-AM for 20 min followed by a 10 min was for de-esterification. Coverslips were mounted into a closed chamber and constantly perfused with physiological bath. Fluorescence was collected using a Nikon Eclipse Ti inverted microscope (Nikon Instruments Inc., Melville, NY, USA) with 40× oil immersion objective, and an Andor Zyla sCMOS digital camera (Andor, South Windsor, CT, USA). For COS-7 cell experiments, TRPV1-GFP+ cells were identified by imaging using an EGFP filter cube (Nikon) prior to Fura-2 imaging. Cells containing Fura-2 were alternatively excited with 340 nm and 380 nm light and fluorescence monitored at 510 nm. Data points were collected with MetaFluor software at 6 s time points. Ratios of fluorescence intensity were converted to Ca^2+ concentrations with a standard curve. Peak calcium responses were quantified, analyzed and compared statistically.
For each experiment, data were collected from three to four nodose ganglion cell cultures or plating of the clonal cells (COS-7). When possible, protocols were designed to be within subject and analyzed using repeated measures ANOVA followed by post hoc comparisons against control. Otherwise unpaired T-tests were used to compare between groups. Parameters of dose-response relationships (EC50, slope, maximum) were determined by sigmoid fit of the data. For antagonist studies (ruthenium red (RR), etc.) all neurons received each treatment and were compared using within subject t-tests. Data are expressed as the average ± SEM. Statistical analysis was performed using SigmaStat software (Systat Software Inc., San Jose, CA, USA).

[2] = target: T1, TRPV1; assay: Whole-cell patch-clamp current recordings in dissociated nodose ganglion neurons; assay type: cell-based
Description: as §1
Liquid junction potentials were not corrected.

[3] = system: second-order NTS neurons; assay: Spontaneous glutamate release (sEPSCs) onto second-order NTS neurons in horizontal brainstem slices; assay type: cell-based, rat
[4] = system: T2, recombinant rat TRPV1 (TRPV1-GFP); assay: Whole-cell patch-clamp in HEK293 cells transfected with TRPV1-GFP; assay type: cell-based; conditions: for current reversal potential: current-voltage plots, n = 9 cells
T2 construct: expressed in transfected cells; host or cells: HEK293 cells (ATCC), transient transfection with lipofectamine 2000
Description: (§2) To generate TRPV1-GFP, the full-length rat TRPV1 coding region (NCBI accession number NM_031982.1) without stop codon was PCR amplified from nodose ganglion cDNA using the primers below and inserted into the HindIII and EcoRI sites of pEGFP-N1 (Clontech).
Clonal COS-7 cells (ATCC® Manassas, VA, USA) were plated on glass coverslips at a density of 250,000 cells per well of a 6-well tissue culture plate. HEK293 cells (ATCC® Manassas, VA, USA) were plated on glass coverslips at a density of 50,000 cells per well of a 12-well plate. COS-7 and HEK293 cells were maintained in DMEM (Invitrogen), 10% FCS (Atlanta Biologicals), 25 units/ml penicillin and 25 μg/ml streptomycin (Sigma). Approximately 24 h after plating, media was replaced with DMEM, 10% FCS without pen/strep and cells were transiently transfected overnight. COS-7 cells were transfected with 2 μg of TRPV1-GFP and 2.4 μl lipofectamine 2000 (Invitrogen) per well. HEK293 cells were transfected with 1 μg of TRPV1-GFP and 1.2 μl lipofectamine 2000 per well. COS-7 cells were used for calcium imaging and HEK293 cells were used for electrophysiological recordings 1–2 days following transfection.
Whole cell recordings were performed on dissociated nodose ganglion neurons or transfected HEK293 cells using an inverted Olympus IX50 microscope and on NTS neurons contained in horizontal brainstem slices using an upright Nikon FN1 microscope. For HEK293 cell experiments, TRPV1-GFP+ cells were identified visually using 488 nm light illuminations prior to patching. […]
Whole cell currents taken from isolated nodose ganglion cells or transfected HEK 293 cells were normalized to the membrane capacitance to control for variability in cell size. […] For brainstem slice recordings the digitized waveforms of synaptic events were analyzed using an event detection and analysis program (MiniAnalysis, Synaptosoft, Decatur, GA, USA) for all quantal synaptic currents and Clampfit 10 (Molecular Devices) for all ST-stimulated currents. All events >10 pA were counted for frequency values. […]

[5] = system: vagal afferent neurons taken from TRPV1 KO mice; assay: Fura-2 calcium imaging in vagal afferent neurons from TRPV1 KO mice; assay type: cell-based, mouse; conditions: any concentration tested, n = 15
Description: Male Sprague Dawley rats (120–250 g, Simonsen Laboratories) and male TRPV1 knockout mice (TRPV−/−) (20–30 g) (B6.129X1-Trpv1^tm1Jul/J, Jackson Laboratories) were used under procedures approved by the IACUC at Washington State University. Animals were housed under 12 h light/12 h dark conditions and fed standard pellet chow ad libitum. This study was carried out in accordance with the recommendations of the Guide for the Care and Use of Laboratory Animals, as drafted, updated and published by National Research Council. […]
(§3) Intracellular calcium measurements were made with the fluorescent Ca^2+ indicator Fura-2 AM (Molecular Probes, Eugene, OR, USA). […] Fluorescence was collected using a Nikon Eclipse Ti inverted microscope (Nikon Instruments Inc., Melville, NY, USA) with 40× oil immersion objective, and an Andor Zyla sCMOS digital camera (Andor, South Windsor, CT, USA). […] Cells containing Fura-2 were alternatively excited with 340 nm and 380 nm light and fluorescence monitored at 510 nm. […] Ratios of fluorescence intensity were converted to Ca^2+ concentrations with a standard curve. Peak calcium responses were quantified, analyzed and compared statistically.

[6] = system: recombinant rat TRPV1 (TRPV1-GFP); assay: Fura-2 calcium imaging in COS-7 cells transfected with TRPV1-GFP; assay type: cell-based; conditions: COS-7 TRPV1-GFP; AEA n = 453 cells, CAP n = 492 cells
Description: as §2
Clonal COS-7 cells (ATCC® Manassas, VA, USA) were plated on glass coverslips at a density of 250,000 cells per well of a 6-well tissue culture plate. HEK293 cells (ATCC® Manassas, VA, USA) were plated on glass coverslips at a density of 50,000 cells per well of a 12-well plate. COS-7 and HEK293 cells were maintained in DMEM (Invitrogen), 10% FCS (Atlanta Biologicals), 25 units/ml penicillin and 25 μg/ml streptomycin (Sigma). […]
as §3

[7] = CAP 1 μM bath application, n = 13

COc1cccc(NC(=O)/C=C/c2ccc(Cl)cc2)c1 [SB366791]
effect on AEA-induced increase in cytosolic calcium ([1]; SB366791 10 μM pretreatment): eliminated | effect on CAP-induced increase in cytosolic calcium ([1]; SB366791 10 μM pretreatment): eliminated

COc1cc(CNC(=O)CCCC/C=C/C(C)C)ccc1O [CAP, capsaicin]
effect of removal of bath calcium on average amplitude of induced current ([2]; saturating CAP 10 μM, bath calcium 2 mM vs calcium free, n = 8): did not change | change of sEPSC event amplitude or decay kinetics [3, 7]: no significant changes | change of spontaneous glutamate release (sEPSC frequency) [3, 7]: dramatic increase | current reversal potential [4]: 5 mV

CCCCC/C=C\C/C=C\C/C=C\C/C=C\CCCC(=O)NCCO [AEA, anandamide]
EC50 [2]: 9.8 ± 1.07 µM | effect of addition of extracellular bath calcium on initial inward current ([2]; AEA applied in calcium free bath, then calcium containing bath, n = 8): significantly reduced | inward current following removal of bath calcium vs standard bath ([2]; saturating AEA 30 μM, bath calcium 2 mM vs calcium free, n = 6): significantly larger | cytosolic calcium increase in TRPV1 KO neurons [5]: failed to produce a calcium increase | change of any sEPSC parameter (frequency, amplitude, decay-time constant) ([3]; AEA 30 μM, n = 16): failed to produce a significant change | EC50 ([1]; cultured vagal afferent neurons, Fura-2, sigmoid fit, AM251 present for AEA, read-out: EC50 for Calcium (peak cytosolic calcium)): 1.95 ± 0.36 µM | calcium response to 1st AEA exposure (time matched control) ([1]; repeated AEA, 1st response, N = 12): 113 ± 26 | calcium response to 2nd AEA exposure (time matched control) ([1]; repeated AEA, 2nd response, N = 12, P = 0.002 vs 1st): 43 ± 13 | peak calcium response, smaller compared to CAP [6]: ~ 14% | current reversal potential [4]: 5 mV | current change, smaller than CAP ([4]; physiological bath, Vm = −60 mV): ~ 52%

N.N.N.N.N.N.N.N.N.N.N.N.N.N.[Cl-].[Cl-].[Cl-].[Cl-].[Cl-].[Cl-].[O-2].[O-2].[Ru+3].[Ru+3].[Ru+4] [RR, ruthenium red]
effect on AEA-induced increase in cytosolic calcium ([1]; RR 1 μM pretreatment): eliminated | effect on CAP-induced increase in cytosolic calcium ([1]; RR 1 μM pretreatment): eliminated
